Laboratory results taken from ChEMBL document CHEMBL1159268, “The structures of new lanostane triterpenes from the fruiting bodies of Hebeloma senescens” (J Nat Prod, 1995).
≈ marks a conversion by molar mass, not a printed value. Calls of active or inactive are those of the source. No cut-off for these calls is given here.

Columns and labels:
[1] = Toxicity against Artemia salina; format: organism-based; settings: in vivo, read-out: LD50 (the source's name)
Escherichia coli = test: Antibacterial activity against Escherichia coli; format: functional, organism-based
Candida albicans = test: […] activity against Candida albicans; format: functional, organism-based

SMILES | LC50 [1] [µg/mL] | Activity (Escherichia coli) | Activity (Candida albicans)
CC(=O)O[C@H]1[C@H](OC(=O)C[C@@](C)(O)CC(=O)O)C[C@]2(C)C3=C(CC[C@H]2C1(C)C)[C@]1(C)CC[C@H]([C@H]2CC[C@H](C(C)(C)O)O[C@@H]2O)[C@@]1(C)[C@@H](O)C3 [HEBELOMIC ACID A] | 96.5 (≈ 139 µM) | inactive | inactive
CC(=O)O[C@H]1CC2=C(CC[C@H]3C(C)(C)[C@@H](OC(C)=O)[C@H](OC(=O)C[C@@](C)(O)CC(=O)O)C[C@]23C)[C@]2(C)CC[C@H]([C@H]3CC[C@H](C(C)(C)O)O[C@@H]3O)[C@@]12C [HEBELOMIC ACID B] | 386 (≈ 525 µM) | inactive | inactive
CC(=O)O[C@H]1O[C@@H](C(C)(C)O)CC[C@@H]1[C@H]1CC[C@@]2(C)C3=C(CC[C@]12C)[C@@]1(C)C[C@@H](OC(=O)C[C@@](C)(O)CC(=O)O)[C@H](OC(C)=O)C(C)(C)[C@@H]1CC3 [HEBELOMIC ACID F] | 19.7 (≈ 27.4 µM) | inactive | inactive
